Common to all, as to assay type: cell-based
Assay [1] concerns NF-κB target genes (BIRC3, TNFAIP3, IL-8). Briefly: qRT-PCR of NF-κB target gene expression in cancer cells. As to the method:
RNA was isolated using an RNeasy kit (Qiagen, Valencia, Calif.). cDNA was generated using the Taqman reverse transcription kit (Applied Biosystems, Foster City, Calif.). qRT-PCR was performed using Sybr Select or Power Sybr green master mix (Applied Biosystems). Samples were plated in triplicate and run on a 7300 or 7500 real time PCR machine (Applied Biosystems), using the indicated primers (Table 2). Target gene expression was normalized to actin, HPRT, or GAPDH. Data are expressed as mean fold change+/−SEM and are representative of at least two independent biological replicates.
(In general: In qPCR the cycle at which signal appears reflects the starting amount.)

In assay [2] the test system is p65. Briefly: Single cell nuclear translocation analysis, HeLa p65-EGFP cells. The settings on record: 1 uM, imaged 18 hours. As to the method:
Hela cells stably expressing EGFP-tagged p65 were imaged for one hour prior to addition of either 1 uM Jak inhibitor 1 or 100 ng/mL TNF, and then for an additional 18 hours. Transmitted light and widefield epifluorescent images were captured at 10 min intervals using a BD Pathway 855 Bioimager with a 20× objective (0.75 NA; Olympus). Imaging was performed in an environmental chamber set to 37θC and 5% CO2. Five fields of view were analyzed per condition and the nuclear translocation of p65-EGFP was manually scored for each cell.

For assay [3], the system named is NF-κB. The assay is described as follows: Dual luciferase reporter assay, OVCAR8 cells transfected with NF-κB dependent reporter. The conditions noted are these: 24 hours. The source says: (§1) Cells were transfected with firefly luciferase plasmids for STAT3 (m67-Luc) or NF-KB-Luc (Stratagene, Santa Clara, Calif.) and a Renilla luciferase plasmid (Promega, Madison, Wis.). The NF-κB-responsive cell line was generated with an NF-κB-responsive reporter plasmid (catalogue no. 219078; Strategene, La Jolla, Calif., incorporated herein by reference). Cells were also co-transfected with a plasmid expressing Renilla luciferase under a constitutive promoter for normalization (pRL-TK plasmid; Promega; Madison, Wis., incorporated herein by reference). Dual luciferase assays were performed as described (Walker et al., 2007 Oncogene, 26: 224-233, incorporated herein by reference).
On the technique in general: A reporter such as luciferase makes a cellular process visible.

The subject of assay [4] is p65 and p50 NF-κB subunits. Briefly: Cellular fractionation and immunoblot of NF-κB subunits upon TNF stimulation, OVCAR8 cells. The conditions noted are these: 24 hours, then TNF. As to the method: (§2) Immunoblots were performed as described (Nelson et al., 2008 Blood, 112: 5095-5102). Nuclear and cytoplasmic fractions were isolated using the Nuclear Extract Kit (Active Motif North America, Carlsbad, Calif.). Antibodies were used recognizing phospho-tyrosine STAT3 (9131), PARP (9542), p65 (8242), RelB (4922) (Cell Signaling; Beverly, Mass.); actin (A-5316) and tubulin (T-5168) (Sigma); and STAT3 (sc-482), p50 (sc-7178), and calnexin (sc-11397) (Santa Cruz Biotechnology; Santa Cruz, Calif.).
Background: In western blotting, separated proteins are transferred to a membrane and probed.

Assay [5] relates to NF-κB. Briefly: NF-κB-dependent luciferase reporter assay in NF-κB-Luc cells (Prestwick library screen and confirmation). The settings on record: drug 1 hour, then TNF stimulation.
Excerpt: as §1
(§3) To identify NF-κB inhibitors, the Prestwick Chemical Library, which contains 1120 bioactive compounds, was screened for activity against cells expressing NF-κB-dependent luciferase (Nelson et al., 2008 Blood, 112(13):5095-102). To confirm the specificity of identified compounds, NF-κB-Luc and STAT3-Luc cells were treated with the indicated doses of drug for one hour followed by stimulation with TNF or IL-6 respectively for 6 hours. Luciferase activity was assessed using the Bright-Glo Luciferase Assay system (Promega).

Assay [6] concerns p65. Briefly: Chromatin immunoprecipitation at NF-κB binding sites of target genes, OVCAR8 cells. The conditions noted are these: harmine pretreatment, TNF 30 minutes. As to the method:
SKBR3 cells stimulated with IL-6 for 30 minutes, OVCAR8 cells treated with harmine for 16 hours and then stimulated with TNF for 30 minutes, or U266 cells treated with Jak inhibitor 1 for 3 hours were analyzed by ChIP. Cross-linking was performed with 1% formaldehyde (0.37% for U266 cells) for 10 min at room temperature, followed by quenching of formaldehyde using 0.125 M glycine. ChIP was performed essentially as described (Nelson et al., 2004 J Biol Chem, 279(52):54724-30). Chromatin was sheared by sonication using a Qsonica Q700 sonicator with a microtip at approximately 75% amplitude. Anti-STAT3 antibody as described above, anti-p65 (Santa Cruz Biotechnology, sc-109), or anti-RNA polymerase II (Santa Cruz Biotechnology, sc-9001) were used. ChIP product was analyzed by qPCR using the following primers: RELB ([…] (SEQ ID NO: 34) and […] (SEQ ID NO: 35)), IL8 ([…] (SEQ ID NO: 36) and […] (SEQ ID NO: 37)), BIRC3 ([…] (SEQ ID NO: 38) and […] (SEQ ID NO: 39)), TNFAIP3 ([…] (SEQ ID NO: 40) and […] (SEQ ID NO: 41)). Data were normalized relative to input and a nonbinding region of the rhodopsin (RHO) gene (Walker et al., 2013 Mol Cell Biol, 33(15):2879-90).

The test system of assay [7] is U266 and OVCAR8 cells. The assay is described as follows: Quantitation of viable cell number, U266 and OVCAR8 cells, harmine with additional STAT3 inhibitors. The settings on record: U266, 15 μM harmine, 3 μM TG101348; OVCAR8, 15 μM harmine, 5 μM pimozide; 72 hours. As to the method:
(§4) Cells were treated with the indicated drugs in 96 well plates for 48 to 72 hours. Viable cell number was assessed using ATP-dependent bioluminescence (Cell-TiterGlo; Promega). Data are expressed as average+/−SD of at least two replicates, and are representative of at least two separate experiments.

The test system of assay [8] is multiple myeloma cells. The assay is described as follows: Quantitation of viable cell number (Cell-TiterGlo), multiple myeloma cells. As to the method: as §4
For assay [9], the system named is INA6 cells. The assay is described as follows: Apoptosis by PARP cleavage immunoblot, INA6 cells. The settings on record: 24 hours. As to the method: as §2
For assay [10], the system named is STAT3. Briefly: STAT3-dependent luciferase reporter counterscreen in STAT3-Luc cells. The settings on record: drug one hour, then IL-6 for 6 hours. As to the method:
as §3

The mark [11] stands for this setting: OVCAR8 cells, 24 hours, qRT-PCR.

“Also recorded” adds a separate entry of the source.

With `CCN1/C(=C/C(C)=O)Sc2ccc(O)cc21` [INDY], the “NF-κB target gene expression” value in assay [1] (setting [11]) is on record as “did not inhibit”.

Regarding `CC(C)(C)c1nc2c3cc[nH]c(=O)c3c3cc(F)ccc3c2[nH]1` [Jak inhibitor 1], the p65 nuclear translocation entry in assay [2] is on record as “not significantly altered”. Also, the “NF-κB target gene expression (IL-8)” value in [1] (A498 renal carcinoma cells, 24 hours) was “enhanced”. Moreover, the “NF-κB target gene expression” value in assay [1] (INA-6 MM cells, 22-24 hours) is “enhanced”; in assay [1] (MDA-MB-468 breast cancer cells, 1 μM, 28 hours) it was “enhanced”; in [1] (setting [11]), “enhanced”. Further, the “NF-κB reporter luciferase activity” value in assay [3] is reported as “enhanced”.

In the case of `COc1ccc2c(c1)[nH]c1c(C)nccc12` [harmine], the “induction of NF-κB target genes induced by Jak inhibitor 1” value in assay [1] (OVCAR8 cells, 24 hours, harmine together with Jak inhibitor 1) was “completely suppressed”. In addition, the “NF-κB target gene expression” value in [1] (setting [11]) is “reduced; also recorded: inhibited”. Also, the “nuclear accumulation of p65 and p50” value in assay [4] is “no effect”. Also, the “NF-κB-dependent luciferase activity (transcriptional activity of NF-κB)” value in [5] is given as “identified as an NF-κB inhibitor”. The “NF-κB-dependent luciferase activity (transcriptional activity of NF-κB)” value in assay [5] (listed as Harmine) is given as “inhibitor of NF-κB-dependent luciferase; also recorded: inhibited”. Further, in assay [6], the “RNA polymerase II binding at NF-κB target genes (ChIP)” value is “reduced” and the “p65 binding at NF-κB binding sites of target genes (ChIP)” value is listed as “reduced”. The “cell killing in combination with additional STAT3 inhibitors (relative viable cell number)” value in assay [7] is recorded as “enhanced killing”. Further, the “cell killing in combination with Jak inhibitor 1 (relative viable cell number)” value in [8] (INA6, 5 μM harmine, 0.25 μM Jak inhibitor 1, 72 hours) is given as “synergistic cell killing”. In addition, the “viability of multiple myeloma cells (relative viable cell number)” value in assay [8] (cells containing activated NF-κB (INA6, U266, MA/11.S), 72 hours) is recorded as “inhibited the viability”. Besides, the “apoptosis measured by PARP cleavage, combination with Jak inhibitor 1” value in assay [9] was “enhanced apoptosis”. For the same compound, the STAT3-dependent luciferase activity entry in assay [10] is listed as “little effect; also recorded: not inhibiting”.

For `O=C(N/N=C/c1ccc([N+](=O)[O-])o1)c1ccc(O)cc1` [nifuroxazide], the “NF-κB target gene expression” value in assay [1] (INA-6 MM cells, 22-24 hours) is given as “upregulation”; in assay [1] (setting [11]), “upregulation”.
